Like-named read-outs stand apart in the source and are kept apart here.

One experiment concerns the target T1, TS in K562 cell lysates (Homo sapiens, UniProt P04818).
T1 construct: screening in live, non-engineered cells expressing thymidylate synthase; endogenous in cells; host or cells: K562 (human myelogenous leukemia) cells
The experiment in a line: Western blot CETSA on K562 cell lysates. Format: binding. The protocol: For the cell lysate thermal shift experiments, cultured K562 cells were harvested and washed with Hank's Balanced Salt Solution. The cells were diluted in lysis buffer supplemented with complete protease inhibitor cocktail. The cell suspensions were freeze-thawed three times using liquid nitrogen and passed through a 27″ gauge needle five times. The soluble fraction (lysate) was separated from the cell debris by centrifugation at 20,000 × g for 20 min at 4 °C. For the thermal aggregation curve experiments cell lysates were diluted with lysis buffer supplemented with 200 μM dUMP and divided into two aliquots, with one aliquot being treated with ligand and the other aliquot with vehicle (control). […] The supernatants containing the remaining soluble proteins were transferred to new 0.2 ml microtubes and analyzed by sodium dodecyl sulfate polyacrylamide gel electrophoresis (SDS-PAGE) followed by western blot analysis.
NuPage Novex Bis-Tris 4–12% polyacrylamide gels with NuPAGE MES SDS running buffer (Life Technologies) were used for separation of proteins in the samples. […] Chemiluminescence intensities were detected and quantified using a ChemiDoc XRS+ imaging system (Bio-Rad) with Image Lab software (Bio-Rad).

The next experiment addresses TS (Homo sapiens, UniProt P04818). Description: TS enzyme inhibition assay. Format: biochemical. On the set-up: His6 tag with TEV site (vector-encoded by pNIC28-Bsa4); made in house; host or cells: Rosetta BL21-DE3 Escherichia coli. As to the method:
Enzymatic activity of recombinant human TS was measured spectrophotometrically at 340 nm by monitoring the absorbance change during the conversion of 5,10-methylenetetrahydrofolate to dihydrofolate using an Infinite M200 spectrometer (Tecan). Measurements were carried out at room temperature and in a buffer of 50 mM Tris at pH 7.5 and 150 mM NaCl. Initial velocities were measured with 250 nM of purified protein, 100 μM 5,10-methylenetetrahydrofolate and 100 μM dUMP in the presence of compounds using the same amount of DMSO as control. Initial rates and activity were analyzed with the software package Prism (GraphPad Software).
Decitabine at a concentration of 1 mM was incubated with 1 mg ml^−1 of recombinant DCK and 2.5 mM ATP in a buffer of 50 mM Tris at pH 7.5, 150 mM NaCl and 0.5 mM MgCl2 at room temperature for 60 min to generate the corresponding monophosphates. To probe for nucleotide deamination the samples were further treated with 1 mg ml^−1 of recombinant DCTD in the presence of 1 mM ATP and 10 μM ZnCl2 for 20 min at room temperature. After incubation, the samples were heated at 95 °C for 10 min and centrifuged for 10 min at the highest speed at 4 °C using a benchtop centrifuge. The supernatant was tested without dilution in thermal shift in vitro assays and the TS enzyme inhibition assay. The supernatants from samples without nucleoside were used as the treatment controls.

For experiment [1], the target named is T2, human thymidylate synthase (TS) (Homo sapiens, UniProt P04818).
T2 construct: screening in live, non-engineered cells expressing thymidylate synthase; endogenous in cells; host or cells: K562 (human myelogenous leukemia) cells
T2 sequence (P04818 2-313 limits assumed): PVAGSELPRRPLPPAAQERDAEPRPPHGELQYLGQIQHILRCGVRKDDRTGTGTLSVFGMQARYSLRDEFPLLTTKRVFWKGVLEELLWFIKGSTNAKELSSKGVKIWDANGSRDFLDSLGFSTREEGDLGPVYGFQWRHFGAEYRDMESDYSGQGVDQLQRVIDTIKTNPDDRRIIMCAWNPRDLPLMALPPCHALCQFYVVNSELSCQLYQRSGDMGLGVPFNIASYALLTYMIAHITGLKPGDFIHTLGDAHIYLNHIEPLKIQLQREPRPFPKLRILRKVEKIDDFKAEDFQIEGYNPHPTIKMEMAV
The experiment in a line: CETSA primary screen / single-concentration retest, AlphaScreen, live K562 cells. It counts as cell-based. As to the method: Compounds were placed in columns 1–22. […] At the day of the experiment the plates were allowed to thaw for 30 min followed by a brief centrifugation step (1,000 × g for 1 min) prior to removal of the seal. The compounds were then diluted with 20 μl supplemented cell culture medium using a Multidrop Combi reagent dispenser (Thermo Scientific). Finally 5 μl of the diluted compounds were transferred to a 384 well hardshell PCR plate (HSR480, BIORAD) using a Bravo liquid handling platform equipped with a 384-well head (Agilent). […] The final concentration of DMSO in the assay was 0.5% in all samples.
The screen procedure started with the addition of 5 μl of a suspension of K562 cells at a density of 10 million cells per ml to all wells of a 384 well hardshell PCR plate (HSR480, BIORAD) using an electronic multichannel pipette (Biohit). […] For the time-course experiments the incubation times were altered to include also 10 min, 30 min and 6 h. […] After the incubation step the plates were transiently heated at 50 °C for 3 min followed by a controlled cooling to 20 °C for 1 min using a real-time PCR machine (LightCycler480 system, Roche). Plate handling was then as described above for the thermal aggregation experiments. The data were analyzed using microsoft excel and GraphPad Prism 6.
A calculation of the average and standard error of means for each set of controls also allowed an illustration of how these responses varied over the 32 screening plates. The Z′ factor[38] is commonly used as a measure of how well the assay separates between the controls and this was calculated as described based on the calculated averages and standard deviations of the controls on a per plate basis. For the Tagg shift and the […] experiments the data were analyzed in GraphPad Prism using the Boltzmann sigmoid equation and the saturation binding curve (rectangular hyperbola; binding isotherm) function, respectively. As already discussed[14] these methods make use of equilibrium models for data analysis although the methodology depends on the irreversible aggregation of denatured material. For this reason we refer to the observed responses as apparent and isothermal dose-response fingerprints and are careful with any quantitative interpretations, being well aware of their dependency on experimental conditions. Experiments are on-going to address the quantitative interpretation of CETSA data.
In general terms: In Alpha technology, singlet oxygen from a donor bead excites a nearby acceptor bead.

TS, sequence (P04818 whole entry): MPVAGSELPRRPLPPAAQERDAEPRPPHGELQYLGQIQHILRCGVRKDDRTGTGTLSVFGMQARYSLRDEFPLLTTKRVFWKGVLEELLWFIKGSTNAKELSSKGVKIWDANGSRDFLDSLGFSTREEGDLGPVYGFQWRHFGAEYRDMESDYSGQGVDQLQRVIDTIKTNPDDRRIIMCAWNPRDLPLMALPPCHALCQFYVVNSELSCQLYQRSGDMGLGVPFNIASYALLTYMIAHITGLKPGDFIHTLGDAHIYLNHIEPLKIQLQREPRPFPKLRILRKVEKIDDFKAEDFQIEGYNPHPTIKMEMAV
T1 sequence (P04818 2-313 limits assumed): as the sequence (P04818 2-313 limits assumed) above

What is called inhibition is how much of the control response was suppressed. For `Cc1cc(O)nc2sc(C(=O)c3ccccc3)c(N)c12` [CBK115334, 3-amino-2-benzoyl-4-methylthieno(2,3-b)pyridin-6-ol], at TS in K562 cell lysates (200 μM compound, lysate with 200 μM dUMP), the “Tagg shift of TS in K562 cell lysates” value was 3.7 °C. Besides, at TS (10 μM compound, read-out: inhibition of TS enzymatic activity), the inhibition at 10 µM stood at 60%. Besides, the “inhibition of TS enzymatic activity” value on TS (100 μM compound) is “near complete inhibition”. Moreover, the % stabilization in screen at 50 µM in experiment [1] (K562, 2 h; read-out: % stabilization in screen) turned out to be 20%.
Turning to `Nc1ncn([C@H]2C[C@H](O)[C@@H](CO)O2)c(=O)n1` [decitabine, 5-Aza-deoxycytidine], the “stabilization of TS in treated K562 lysates” value at TS in K562 cell lysates (200 µM decitabine) was “not stabilized”. Further, the “inhibition in TS enzymatic assay” value is “minor inhibition” at TS (decitabine sample after DCK treatment); “near full inhibition” at TS (decitabine sample after treatment with both DCK and DCTD). The % stabilization in screen at 50 µM in experiment [1] (K562, 2 h, read-out: % stabilization in screen) is 91%.

Values taken from paper PMC4820820, “CETSA screening identifies known and novel thymidylate synthase inhibitors and slow intracellular activation of 5-fluorouracil” (Nature Communications, 2016).
